How the values were obtained:
Assay in all cases: relative viability (nuclei count vs DMSO), 5 days (fraction); higher = more cells survive
[1] = compound: C[C@@H](N)c1ccc(C(=O)Nc2ccnc3[nH]ccc23)cc1 + O=C(c1cc(Cc2n[nH]c(=O)c3ccccc23)ccc1F)N1CCN(C(=O)C2CC2)CC1 [Olaparib] (partner 8 µM)
How it was run: (§1)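 Dosing by pin tool came one day after lung cancer cell lines were seeded in 1536-well plates, using either one drug or a fixed anchor-drug dose plus five library-drug doses (not always all listed) in √10 steps. After 5 days, nuclei were counted on 4× images. Relative viability is treated-well nuclei count divided by vehicle-well nuclei count, and values are medians of duplicate plates.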

Tanzisertib + Crizotinib = compound: O[C@H]1CC[C@H](Nc2ncc3nc(Nc4c(F)cc(F)cc4F)n([C@H]4CCOC4)c3n2)CC1 [Tanzisertib] + C[C@@H](Oc1cc(-c2cnn(C3CCNCC3)c2)cnc1N)c1c(Cl)ccc(F)c1Cl [Crizotinib] (partner 1 µM)
How it was run: as §1

Tanzisertib + Linsitinib = compound: O[C@H]1CC[C@H](Nc2ncc3nc(Nc4c(F)cc(F)cc4F)n([C@H]4CCOC4)c3n2)CC1 [Tanzisertib] + C[C@]1(O)C[C@@H](c2nc(-c3ccc4ccc(-c5ccccc5)nc4c3)c3c(N)nccn32)C1 [Linsitinib] (partner 1 µM)
How it was run: as §1

[2] = compound: C1CNCCC1C2=CC(=NN2)C3=CC=NC=C3 + Nc1ncn([C@H]2C[C@H](O)[C@@H](CO)O2)c(=O)n1 [Decitabine] (partner 2 µM)
How it was run: as §1

| Cell Line | relative viability ([1]; first compound 0.04 µM) | relative viability ([1]; first compound 0.1265 µM) | relative viability ([1]; first compound 0.4 µM) | relative viability ([1]; first compound 1.265 µM) | relative viability ([1]; first compound 4 µM) | relative viability (Tanzisertib + Crizotinib; first compound 0.08 µM) | relative viability (Tanzisertib + Crizotinib; first compound 0.253 µM) | relative viability (Tanzisertib + Crizotinib; first compound 0.8 µM) | relative viability (Tanzisertib + Crizotinib; first compound 2.53 µM) | relative viability (Tanzisertib + Crizotinib; first compound 8 µM) | relative viability (Tanzisertib + Linsitinib; first compound 0.08 µM) | relative viability (Tanzisertib + Linsitinib; first compound 0.253 µM) | relative viability (Tanzisertib + Linsitinib; first compound 0.8 µM) | relative viability (Tanzisertib + Linsitinib; first compound 2.53 µM) | relative viability (Tanzisertib + Linsitinib; first compound 8 µM) | relative viability ([2]; first compound 0.08 µM) | relative viability ([2]; first compound 0.8 µM) | relative viability ([2]; first compound 2.53 µM) | relative viability ([2]; first compound 8 µM) |
| --- | --- | --- | --- | --- | --- | --- | --- | --- | --- | --- | --- | --- | --- | --- | --- | --- | --- | --- | --- |
| NCI-H1944 | 0.453 | 0.396 | 0.434 | 0.432 | 0.401 | 1.23 | 1.03 | 1.11 | 1.14 | 0.949 | 1.25 | 1.18 | 1.12 | 1.12 | 0.878 | 0.426 | 0.431 | 0.414 | 0.415 |
| NCI-H1975 | 0.771 | 0.757 | 0.78 | 0.67 | 0.523 | 0.892 | 1 | 0.954 | 0.935 | 0.915 | 1.1 | 0.979 | 0.993 | 1.07 | 0.873 | 0.369 | 0.355 | 0.399 | 0.363 |
| NCI-H1993 | 1.4 | 1.14 |  | 1.02 |  | 0.855 | 0.886 | 0.891 | 0.789 | 0.789 | 0.759 | 0.681 | 0.754 | 0.768 | 0.677 | 0.573 | 0.576 | 0.473 | 0.7 |
| NCI-H2009 | 0.657 | 0.666 | 0.611 | 0.595 | 0.547 | 1.04 | 1.13 | 1.02 | 1.12 | 1.06 | 1.22 | 1.17 | 1.17 | 1.26 | 1.21 | 0.374 | 0.4 | 0.343 | 0.37 |
| NCI-H2023 | 0.534 | 0.497 | 0.516 | 0.503 | 0.495 | 0.568 | 0.651 | 0.684 | 0.607 | 0.567 | 0.702 | 0.589 | 0.759 | 0.621 | 0.56 | 0.219 | 0.222 | 0.251 | 0.194 |
| NCI-H2085 | 0.762 | 0.726 | 0.667 | 0.706 | 0.619 | 0.875 | 0.805 | 0.819 | 0.889 | 0.93 | 1.03 | 0.808 | 0.905 | 0.826 | 0.83 | 0.526 |  | 0.578 | 0.531 |
| NCI-H2087 | 0.733 | 0.598 | 0.605 | 0.625 | 0.576 | 0.717 | 0.918 | 0.889 | 0.899 | 1.06 | 1.12 | 1.07 | 0.98 | 1.24 | 0.957 | 0.339 | 0.279 | 0.267 | 0.292 |
| NCI-H2126 | 0.945 | 0.946 | 0.915 | 0.988 | 0.948 | 1.09 | 1.01 | 1.03 | 0.985 | 1.03 | 0.814 | 0.77 | 0.712 | 0.726 | 0.736 | 0.613 | 0.654 | 0.667 | 0.578 |
| NCI-H2347 | 0.53 | 0.579 | 0.534 | 0.566 | 0.461 | 0.675 | 0.765 | 0.739 | 0.945 | 0.827 | 1.08 | 0.973 | 1.08 | 1.09 | 1.3 | 0.63 | 0.621 | 0.658 | 0.567 |
